Counter-ions that a name gives are not always drawn. Where a SMILES comes first, the peptide text is derived from it.
Test system: rats previously treated by vincristine
Test: Vincristine model, sound avoidance conditioning (pole climbing test)
Format: in vivo, rat
Procedure: The rats were slightly anesthetized by ether, an incision was made into the skin of the skull, and the skull was pierced by means of a dental burr. A metal needle was stereotaxically directed to the lateral ventricle, and then fixed by means of dental cement. Every day of the experiment, the patency of the needle was controlled.
Three days after introducing the needle (recovery from the postoperative shock) the non-anesthetized animals were injected 5 μl of normal saline with vincristine in a dose of 5 μg/kg/day. […] This administration was repeated every day for a period of five days.
Three days after the last administration of vincristine, the animals were chloralized (360 mg/kg), and, starting at the external carotid artery, a permanent floating catheter was retrogradely introduced into a common carotid artery. This catheter left again on the top of the skull, and was fixed by means of dental cement. After two days the animals had recovered from the postoperative shock. […] The steady state was reached on Day 3 after the last administration, and the model was stable for a period of several months. Once this lapse of time passed, a second type of degeneration was observed that affects the white matter, and was certainly due to apoptosis phenomena).
Five days after the last administration of vincristine, the twenty rats were randomly divided into two groups of 10 animals each: • one group of 10 rats received an intracarotid injection of 1 ml/kg/day of normal saline (controls) for a period of 10 days. • one group of 10 rats received 20 mg/kg/day of HCl-Gly-Phe-ProNH2 dissolved in normal saline for a period of 10 days. The injections were given at 9.00 a.m.
During the last five days of treatment, the rats were placed under the common learning conditions of the three models between 10.00 a.m. and 11.00 a.m. (see below).
During the last five days of treatment, at 10.00 a.m. (1 hour after the administration of HCl-Gly-Phe-ProNH2), the animals were placed into a learning cage for sound avoidance conditioning (Conditioning avoidance response). The animals learned to climb a pole first to escape from and then to avoid an electric shock. This method was standardized and quantified in our laboratory (see Le Poncin M., Lafitte J. C., Rapin J. R., Sound Avoidance Conditioning and a Mathematical approach to the description of acquisition performance, Math. Biosciences 59 (1982) 242–268).
For a period of five days, the animals were placed everyday under these learning conditions for a total of ten tests a day. Results are expressed as percentage of adequate responses, and the kinetics of the responses is represented by a multi-exponential maximum curve.
The curve maximum represents the learning capacities. The slope of the curve evaluates the learning speed. The area under the curve (AUC) represents a good evaluation of all conditioning parameters. The maximum value of the area under the curve is 500, if the animals show 100% adequate responses as early as Day 0. In fact, an average area under the curve is calculated per day, what amounts to a maximum value of 100. In the absolute control animals, this average area under the curve is equal to 40+/−4.

`NCC(=O)N[C@@H](Cc1ccccc1)C(=O)N1CCC[C@H]1C(N)=O` [HCl-Gly-Phe-ProNH2, glycyl-L-phenylalanyl-L-prolineamide] (H-Gly-Phe-Pro-NH2) was tested, and the “percentage of adequate responses D0” value (vincristine 5 μg/kg/day ICV 5 days, 20 mg/kg/day intracarotid 10 days, learning day D0) was 0%, the “AUC (average area under the learning curve per day)” value (vincristine model, 20 mg/kg/day 10 days) was “**24.8 +/− 3.2” and the “percentage of adequate responses D1” value (vincristine model, 20 mg/kg/day 10 days, learning day D1) was 5 +/− 2%. For the same compound, the “percentage of adequate responses D2” value (vincristine model, 20 mg/kg/day 10 days, learning day D2) was “**20 +/− 4%”, the “percentage of adequate responses D3” value (vincristine model, 20 mg/kg/day 10 days, learning day D3) was “**40 +/− 5%” and the “percentage of adequate responses D4” value (vincristine model, 20 mg/kg/day 10 days, learning day D4) was “**59 +/− 6%”. For the same compound, the “effect on learning parameters” value (vincristine model, intracarotid injection treatment) was “partly restores the learning parameters”.

From patent US7129213B2, “Tripeptides and tripeptide derivatives for the treatment of neurodegenerative diseases” (Neurotell AG, priority 2002, dated 2006)
